Source: patent US20190353647A1, “NOVEL REAL-TIME MULTIPLEXED, MULTI-COLOR BIOLUMINESCENCE RESONANCE ENERGY TRANSFER ASSAY, APPARATUS, AND USES THEREOF” (Universite de Bordeaux, priority 2016, published 2019)

Biological target: T1, TRPV1 (Homo sapiens, UniProt Q8NER1)
T1 construct: expressed in transfected cells; host or cells: HEK293T
Assay: Intermolecular BRET assay, TRPV1-Luc/YFP-CaM in HEK293T cells
Format: cell-based
Settings: for Effect on CAPS-induced BRET increase: intermolecular test
From the text: In order to generate the BRET constructs, super Yellow Fluorescent Protein 2 and Renilla Luciferase II were used to improve the brightness of the assay. They were referred as YFP and Luc for short in the rest of the manuscript. The cDNA of Luc and YFP were first cloned together using a three-piece ligation in the BamHI/XhoI site of pcDNA3.1(+) (Invitrogen, Carlsbad, Calif., USA), yielding two expression vectors pcDNA3.1 YFP-Luc where YFP was cloned in-fusion at the N-terminal of Luc, and pcDNA3.1 Luc-YFP where Luc was cloned in-fusion at the N-terminal of YFP. Both YFP and Luc were amplified by PCR from the pcDNA3-YFP-EPAC-Luc vector. Luc was cloned either at the N-terminal of YFP as a HindIII-EcoRI fragment (primers used: “Luc_HindIII_ATGN-term sense” and “Luc_no Stop_EcoRI_N-term antisense”) or at the COOH-terminal of YFP as an EcoRI-XhoI fragment (primer used: “Luc_EcoRI_ATG_C-term sense” and “Luc_XhoI_Stop_C-term antisense”). In parallel, YFP was cloned either at the N-terminal of Luc as a HindIII-EcoRI fragment (primers used: “YFP_HindIII_ATG_N-term sense” and “YFP_no Stop_EcoRI_N-term antisense”) or at the COOH-terminal of Luc as a EcoRI-XhoI fragment (primer used: “YFP_EcoRI_ATG_C-term sense” and “YFP_XhoI_Stop_C-term antisense”). The sequence joining Luc and YFP sequence encoded […] (SEQ ID NO: 18) as a linker, and contained an AgeI restriction site. The YFP-hTRPV1-Luc expression vector was obtained by subcloning the human TRPV1 cDNA from the pDONR201-hTRPV1 vector (Harvard Medical School PlasmID Repository, clone HsCD00081472) as an EcoRI PCR fragment in the EcoRI site of the vector pcDNA3.1 YFP-Luc (primer used: “hTRPV1_EcoRI_Fus_Sense” and “hTRPV1_EcoRI_Fus_antisense”). The hTRPV1-Luc expression vector was obtained by subcloning the cDNA of hTRPV1 as a HindIII-EcoRI fragment in place of the YFP in the HindIII-EcoRI site of the pcDNA3.1 YFP-Luc vector (primer used: “hTRPV1_HindIII_ATG_Sense” and “hTRPV1_EcoRI_Fus_antisense”). The Luc-hTRPV3 expression vector was obtained by subcloning the cDNA of hTRPV3 (Harvard Medical School PlasmID Repository, clone HsCD00341603) as a AgeI-XhoI fragment in place of the YFP in the AgeI-XhoI sites of the pcDNA3.1 Luc-YFP vector (primer used: “hTRPV3_AgeI_ATG_Sense” and “hTRPV3_Stop_XhoI_antisense”). The hTRPV4-Luc expression vector was obtained by subcloning the cDNA of hTRPV4 as a BamHI-AgeI fragment in place of the YFP in the BamHI-AgeI site of the pcDNA3.1 YFP-Luc vector (primer used: “hTRPV4_BamHI_ATG_Sense” and hTRPV4_AgeI_Fus_antisense”). In each case, the sequence joining the cDNA of interest and either Luc or YFP sequence encoded […] (SEQ ID NO: 18) as a linker.
The cDNA of mAmetrine (Plasmid #54660) and LssmOrange (Plasmid #37130) were obtained from AddGene plasmid repository. The cDNA of aquamarine, mAmetrine and LssmOrange were all subcloned as a HindIII-EcoRI fragment in place of the YFP in the HindIII-EcoRI site of the pcDNA3.1 YFP-Luc vector (primer used: “YFP_HindIII_ATG_N-term sense” and “YFP_no Stop_EcoRI_N-term antisense”) to yield pcDNA3.1 FP-Luc expression vectors (“FP” being any fluorescent protein between aquamarine, mAmetrine and LssmOrange). […] A similar strategy was used to obtain the FP-CaM expression vector using the pcDNA3.1 FP-Luc expression vector instead of the pcDNA3.1 YFP-Luc.
HEK293T cells were maintained in Dulbecco's modified Eagle's medium-high Glucose (DMEM) (D6429, Sigma) supplemented with 10% fetal bovine serum, 100 units mL-1 penicillin and streptomycin. Twenty-four hours before transfection, cells were seeded at a density of 500,000 cells in 6-well dishes. Transient transfections were performed using polyethylenimine (PEI, linear, Mr 25,000; catalogue number 23966 Polysciences, Inc., Warrington, Pa., USA) with a PEI:DNA ratio of 4:1. Usually, 0.1-0.25 μg of the donor constructions and 1.75-1.9 μg of the acceptors constructions were transfected for the BRET measurement.

[1] = TRPV1-Luc/YFP-CaM titration, presence vs absence of CAPS
[2] = temperature rise from 25 to 42° C., TRPV1-Luc/YFP-CaM

T1 sequence (Q8NER1 whole entry): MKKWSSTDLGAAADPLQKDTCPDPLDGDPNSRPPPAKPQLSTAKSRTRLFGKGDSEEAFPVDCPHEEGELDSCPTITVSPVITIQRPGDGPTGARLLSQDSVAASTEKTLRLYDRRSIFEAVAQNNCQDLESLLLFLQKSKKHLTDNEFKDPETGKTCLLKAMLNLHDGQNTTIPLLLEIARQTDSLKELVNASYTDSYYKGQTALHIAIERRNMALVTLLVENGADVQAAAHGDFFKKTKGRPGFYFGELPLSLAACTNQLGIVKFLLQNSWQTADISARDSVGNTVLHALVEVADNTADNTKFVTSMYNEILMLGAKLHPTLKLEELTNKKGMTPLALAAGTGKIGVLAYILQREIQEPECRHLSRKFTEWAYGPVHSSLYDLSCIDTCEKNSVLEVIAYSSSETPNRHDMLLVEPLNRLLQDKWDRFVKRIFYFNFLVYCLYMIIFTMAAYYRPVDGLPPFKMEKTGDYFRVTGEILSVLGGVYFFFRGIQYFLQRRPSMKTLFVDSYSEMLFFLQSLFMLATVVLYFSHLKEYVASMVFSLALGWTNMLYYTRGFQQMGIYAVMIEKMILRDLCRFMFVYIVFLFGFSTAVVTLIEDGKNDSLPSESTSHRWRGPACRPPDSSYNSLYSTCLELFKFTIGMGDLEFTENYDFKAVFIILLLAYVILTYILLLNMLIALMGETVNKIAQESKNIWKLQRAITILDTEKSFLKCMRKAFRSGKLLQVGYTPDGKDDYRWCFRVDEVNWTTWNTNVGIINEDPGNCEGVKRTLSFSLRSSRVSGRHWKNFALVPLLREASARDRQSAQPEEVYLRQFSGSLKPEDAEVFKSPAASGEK

| Effect on CAPS-induced BRET increase (TRPV1-Luc/YFP-CaM) | Sensitivity of TRPV1-Luc/YFP-CaM interaction (HEK293T, dose-response, FIG. 1) | Change of basal BRET signal (TRPV1-Luc/YFP-CaM) | BRET50 (concentration of YFP-CaM needed to reach 50% of maximal BRET signal) [1] | Maximal BRET signal in BRET titration curves [1] | Change in CAPS potency on temperature rise [2] | Change in maximal efficacy on temperature rise [2] | BRET signal on heating from 25 to 50° C. after preincubation (TRPV1-Luc/YFP-CaM, cells preincubated with the compound) | SMILES |
| --- | --- | --- | --- | --- | --- | --- | --- | --- |
| inhibited | – | – | – | – | – | – | – | CC(=O)Nc1nc2c(Oc3cc(-c4ccc(C(F)(F)F)cc4)ncn3)cccc2s1 [AMG517] |
| – | sensitive | increased with a first order kinetic | diminished | dramatically increased | leftward shift | increase | – | COc1cc(CNC(=O)CCCC/C=C/C(C)C)ccc1O [CAPS, Capsaicin] |
| inhibited | – | – | – | – | – | – | no significant increase | Oc1cc2c(cc1O)CN(C(=S)NCCc1ccc(Cl)cc1)CCC2 [CPZ, Capsazepine] |
